From patent publication US7879876B2, “Sulfonamide derivatives and use thereof for the modulation of metalloproteinases” (Merck Serono SA, priority 2005, dated 2011)

Key:
Format in all cases: biochemical
metalloelastase (MMP-12) = metalloelastase (MMP-12) (Homo sapiens, UniProt P39900); experiment: MMP-12 enzyme inhibition assay (coumarin-labelled peptide substrate); conditions: read-out: IC50 MMP12
Procedure: (§1) Compounds of the invention were tested to assess their activities as inhibitors of MMP-1, MMP-2, MMP-9, MMP-14, MMP-12 and TACE. MMP-9 Assay Protocol
(§2) Compounds of the invention were tested for inhibitory activity against 92 kDa gelatinase (MMP-9) in an assay using a coumarin-labeled peptide substrate, (7-methoxycoumarin-4-yl)acetyl-Pro-Leu-Gly-Leu-(3-[2,4-dinitrophenyl]-L-2,3diaminopropionyl)-Ala-Arg-NH2 (McaPLGLDpaAR) (Knight et al, FEBS Lett. 1992; 263-266).
(§3) Stock solutions were made up as follows: Assay Butter: 100 mM Tris-HCl pH 7.6 containing 100 mM NaCl, 10 mM CaCl2, and 0.05% Brij 35.
(§4) Substrate: 0.4 mM McaPLGLDpaAR (from Bachem) (0.437 mg/ml) stock solution in 100% DMSO (stored at −20° C.). Dilute to 8 μM in assay butter.
(§5) Enzyme: Recombinant human 92 kDa gelatinase (MMP-9; APMA (4-aminophenyl mercuric acetate)-activated if necessary) appropriately diluted in assay butter.
(§6) Test Compounds were prepared initially as 10 mM compound solution in 100% DMSO, diluted to 1 mM in 100% DMSO, then serially diluted 3-fold in 100% DMSO across columns 1-10 of a 96-well microtitre plate Assay concentration range, 100 μM (column 1) to 5.1 nM (column 10).
(§7) The assay was performed in a total volume of 100 μL per well in 96-well microtitre plates. Activated enzyme (20 μL) was added to the wells followed by 20 μL of assay butter. Appropriate concentrations of test compounds dissolved in 10 μL of DMSO were then added followed by 50 μL of McaPLGLDpaAR (8 μM, prepared by dilution of DMSO stock in assay butter). For each as say ten concentrations of test compound were examined in duplicate. Control wells lack either enzyme or test compound. The reactions were incubated at 37° C. for 2 hours. The fluorescence at 405 nm was measured immediately with an SLT Fluostar fluorometer (SL T Labinstruments GmbH, Grödig, Austria) using 320 nm excitation, without stopping the reaction.
(§8) The effect of the test compound was determined from the dose response curve generated by the 10 duplicate concentrations of inhibitor. The IC50 (the concentration of compound required to give a 50% decrease in enzyme activity) was obtained by fitting data to the equation, Y=a+((b−a)/(1+(c/X)^d)). (Y=inhibition achieved for a particular dose; X=the dose in nM; a=minimum y or zero % inhibition; b=maximum y or 100% inhibition; c=is the IC50; d=is the slope). The result was rounded to one significant figure.
Compounds of the invention were tested for inhibitory activity against metalloelastase (MMP-12) in an assay using a coumarin-labelled peptide substrate, (7-methoxycoumarin-4-yl)acetyl-Pro-Leu-Gly-Leu-(3-[2,4-dinitrophenyl]-L-2,3-diaminopropionyl)-Ala-Arg-NH2 (McaPLGLDpaAR) (Knight et al, 1992, above). The protocol for this assay was as described for the MMP-9 assay above.

MMP-14 = MMP-14 (Homo sapiens, UniProt P50281); experiment: MMP-14 enzyme inhibition assay (coumarin-labelled peptide substrate); conditions: for inhibition at 0.1 µM / inhibition at 5 µM: read-out: percentage inhibition MMP14; for IC50: read-out: IC50 MMP14
Procedure: as §1, §2, §3, §4, §5, §6, §7, §8
(§9) Compounds of the invention were tested for inhibitory activity against MMP-14 in an assay using a coumarin-labelled peptide substrate, (7-methoxycoumarin-4-yl)acetyl-Pro-Leu-Gly-Leu-(3-[2,4-dinitrophenyl]-L-2,3diaminopropionyl)-Ala-Arg-NH2 (Mca PLGLD paAR) (Knight et al, 1992, above). The protocol for this assay was as described for the MMP-9 assay above.

collagenase (MMP-1) = target: T1, collagenase (MMP-1) (Homo sapiens, UniProt P03956); experiment: MMP-1 enzyme inhibition assay (coumarin-labelled peptide substrate); conditions: for IC50: read-out: IC50 MMP1
T1 sequence (P03956 100-469): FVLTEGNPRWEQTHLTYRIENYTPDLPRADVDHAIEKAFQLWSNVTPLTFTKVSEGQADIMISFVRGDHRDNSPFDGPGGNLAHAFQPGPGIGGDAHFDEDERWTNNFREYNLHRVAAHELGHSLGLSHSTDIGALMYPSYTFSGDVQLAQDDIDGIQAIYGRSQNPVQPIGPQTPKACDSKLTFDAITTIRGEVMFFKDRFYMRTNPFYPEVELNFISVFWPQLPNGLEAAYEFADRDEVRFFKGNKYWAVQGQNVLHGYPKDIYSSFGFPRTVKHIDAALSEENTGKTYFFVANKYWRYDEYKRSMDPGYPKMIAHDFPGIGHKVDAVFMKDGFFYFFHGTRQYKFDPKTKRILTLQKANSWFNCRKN
Procedure: as §1, §2, §3, §4, §5, §6, §7, §8
as §9, with “collagenase (MMP-1)” for “MMP-14”, “PLGLDpaAR)” for “PLGLD paAR)”

[1] = read-out: percentage inhibition MMP1

Sequence of metalloelastase (MMP-12) (P39900 106-470): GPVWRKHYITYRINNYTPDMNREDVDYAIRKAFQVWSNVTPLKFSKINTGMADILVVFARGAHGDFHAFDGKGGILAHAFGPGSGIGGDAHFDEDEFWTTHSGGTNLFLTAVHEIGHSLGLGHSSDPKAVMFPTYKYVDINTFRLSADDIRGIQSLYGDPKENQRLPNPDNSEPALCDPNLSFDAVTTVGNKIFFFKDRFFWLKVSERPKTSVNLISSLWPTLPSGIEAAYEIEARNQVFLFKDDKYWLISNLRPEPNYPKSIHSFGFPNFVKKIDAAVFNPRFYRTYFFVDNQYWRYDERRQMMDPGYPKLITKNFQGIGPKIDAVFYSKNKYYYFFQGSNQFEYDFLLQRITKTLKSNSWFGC

Row | IC50 (metalloelastase (MMP-12)) | inhibition at 0.1 µM (MMP-14) | inhibition at 5 µM (MMP-14) | inhibition at 5 µM (collagenase (MMP-1); [1]) | IC50 (MMP-14) | IC50 (collagenase (MMP-1)) | inhibition at 0.1 µM (collagenase (MMP-1); @ 0.1 μM, read-out: percentage inhibition MMP1) | SMILES
1 | 7 nM | 5% | 83% | 9% |  |  |  | CC(C)(C)OC(=O)N1CCC[C@@H]1[C@@H](CS(=O)(=O)N1CCc2cc(Cl)c(Cl)cc2C1)N(O)C=O (racemic) [Example 44, tert-butyl (2RS)-2-{(1SR)-2-[(6,7-dichloro-3,4-dihydro-isoquinolin-2(1H)-yl)sulfonyl]-1-[formyl(hydroxy)amino]ethyl}pyrrolidine-1-carboxylate]
2 | 1.4 nM | 13% | 95% | 9% |  |  |  | CC(C)c1ccc2c(c1)CCN(S(=O)(=O)CC([C@H]1COC(C)(C)O1)N(O)C=O)C2 (stereo partly drawn) [Example 18, N-{1-[(4S)-2,2-dimethyl-1,3-dioxolan-4-yl]-2-[(6-isopropyl-3,4-dihydroisoquinolin-2(1H)-yl)sulfonyl]ethyl}-N-hydroxyformamide]
3 | 6 nM | 10% | 81% | 45% |  |  |  | CC1(C)OC[C@H](C(CS(=O)(=O)N2CCc3ccc(Cl)cc3C2)N(O)C=O)O1 (stereo partly drawn) [Example 19, N-{2-[(7-chloro-3,4-dihydroisoquinolin-2(1H)-yl)sulfonyl]-1-[(4S)-2,2-dimethyl-1,3-dioxolan-4-yl]ethyl}-N-hydroxyformamide]
4 | 19 nM |  | 45% | 20% |  |  |  | O=CN(O)C(CS(=O)(=O)N1CCc2ccc(Cl)cc2C1)C1CCCC1 (stereo not shown) [Example 21, N-{2-[(7-chloro-3,4-dihydroisoquinolin-2(1H)-yl)sulfonyl]-1-cyclopentylethyl}-N-hydroxyformamide]
5 | 210 nM |  | 0% | 0% |  |  |  | O=CN(O)[C@@H](CS(=O)(=O)N1CCc2ccc(Cl)cc2C1)[C@H]1CCCO1 [Example 22, N-{(1R)-2-[(7-chloro-3,4-dihydroisoquinolin-2(1H)-yl)sulfonyl]-1-[(2R)-tetrahydrofuran-2-yl]ethyl}-N-hydroxyformamide]
6 | 28 nM | 7% | 72% | 52% |  |  |  | O=CN(O)[C@H](CS(=O)(=O)N1CCc2ccc(Cl)cc2C1)[C@H]1CCCO1 [Example 23, N-{(1S)-2-[(7-chloro-3,4-dihydroisoquinolin-2(1H)-yl)sulfonyl]-1-[(2R)-tetrahydrofuran-2-yl]ethyl}-N-hydroxyformamide]
7 | 300 nM |  | 0% | 0% |  |  |  | COc1cc2c(cc1OC)CN(S(=O)(=O)CC([C@H](O)CO)N(O)C=O)CC2 (stereo partly drawn) [Example 24, N-((2S)-1-{[(6,7-dimethoxy-3,4-dihydroisoquinolin-2(1H)-yl)sulfonyl]methyl}-2,3-dihydroxypropyl)-N-hydroxyformamide]
8 | 6 nM | 0% | 73% | 37% |  |  |  | O=CN(O)C(CS(=O)(=O)N1CCc2cc(C(F)(F)F)ccc2C1)C1CCCC1 (stereo not shown) [Example 25, N-(1-cyclopentyl-2-{[6-(trifluoromethyl)-3,4-dihydro-isoquinolin-2(1H)-yl]sulfonyl}ethyl)-N-hydroxyformamide]

Further lines, the molecule ahead of its results:

Row | SMILES | IC50 (metalloelastase (MMP-12)) | inhibition at 0.1 µM (MMP-14) | inhibition at 5 µM (MMP-14) | inhibition at 5 µM (collagenase (MMP-1); [1]) | IC50 (MMP-14) | IC50 (collagenase (MMP-1)) | inhibition at 0.1 µM (collagenase (MMP-1); @ 0.1 μM, read-out: percentage inhibition MMP1)
9 | O=CN(O)C(CCc1ccccc1)CS(=O)(=O)N1CCc2ccccc2C1 (stereo not shown) [Example 1, N-{1-[(3,4-dihydroisoquinolin-2(1H)-ylsulfonyl)methyl]-3-phenylpropyl}-N-hydroxyformamide] | 27 nM |  |  |  | > 5000 nM | > 5000 nM | 
10 | CC1(C)OC[C@H](C(CS(=O)(=O)N2CCc3ccccc3C2)N(O)C=O)O1 (stereo partly drawn) [Example 2, N-{2-(3,4-dihydroisoquinolin-2(1H)-ylsulfonyl)-1-[(4S)-2,2-dimethyl-1,3-dioxolan-4-yl]ethyl}-N-hydroxyformamide] | 14 nM |  |  |  | > 5000 nM | > 5000 nM | 
11 | CCCCCC(CS(=O)(=O)N1CCc2ccccc2C1)N(O)C=O (stereo not shown) [Example 3, N-{1-[(3,4-dihydroisoquinolin-2(1H)-ylsulfonyl)methyl]hexyl}-N-hydroxyformamide] | 14 nM |  | 67% | 31% |  |  | 
12 | O=CN(O)C(CS(=O)(=O)N1CCc2ccccc2C1)C1CC1 (stereo not shown) [Example 4, N-[1-cyclopropyl-2-(3,4-dihydroisoquinolin-2(1H)-ylsulfonyl)ethyl]-N-hydroxyformamide] | 65 nM |  | 29% | 19% |  |  | 
13 | O=CN(O)C(CCc1ccccc1)CS(=O)(=O)N1Cc2ccccc2C1 (stereo not shown) [Example 6, N-{1-[(1,3-dihydro-2H-isoindol-2-ylsulfonyl)methyl]-3-phenylpropyl}-N-hydroxyformamide] | 9 nM |  |  |  | 865 nM | > 5000 nM | 
14 | O=CN(O)C(CS(=O)(=O)N1CCc2ccccc2C1)c1cncnc1 (stereo not shown) [Example 9, N-[2-(3,4-dihydroisoquinolin-2(1H)-ylsulfonyl)-1-pyrimidin-5-ylethyl]-N-hydroxyformamide] | 49 nM |  | 61% | 29% |  |  | 
15 | O=CN(O)C(CS(=O)(=O)N1CCc2ccccc2C1)c1cccnc1 (stereo not shown) [Example 10, N-[2-(3,4-dihydroisoquinolin-2(1H)-ylsulfonyl)-1-pyridin-3-ylethyl]-N-hydroxyformamide] | 13 nM |  | 36% | 8% |  |  | 
16 | COc1cc2c(cc1OC)CN(S(=O)(=O)CC(CCc1ccccc1)N(O)C=O)CC2 (stereo not shown) [Example 12, N-(1-{[(6,7-dimethoxy-3,4-dihydroisoquinolin-2(1H)-yl)sulfonyl]methyl}-3-phenylpropyl)-N-hydroxyformamide] | 92 nM |  | 0% | 0% |  |  | 
17 | COc1ccc(C(CS(=O)(=O)N2CCc3ccccc3C2)N(O)C=O)cn1 (stereo not shown) [Example 13, N-[2-(3,4-dihydroisoquinolin-2(1H)-ylsulfonyl)-1-(6-methoxypyridin-3-yl)ethyl]-N-hydroxyformamide] | 10 nM |  | 64% | 16% |  |  | 
18 | COc1cc2c(cc1OC)CN(S(=O)(=O)CC([C@H]1COC(C)(C)O1)N(O)C=O)CC2 (stereo partly drawn) [Example 14, N-{2-[(6,7-dimethoxy-3,4-dihydroisoquinolin-2(1H)-yl)sulfonyl]-1-[(4S)-2,2-dimethyl-1,3-dioxolan-4-yl]ethyl}-N-hydroxyformamide] | 41 nM |  | 0% | 0% |  |  | 
19 | CC1(C)OC[C@H](C(CS(=O)(=O)N2Cc3ccccc3C2)N(O)C=O)O1 (stereo partly drawn) [Example 16, N-{2-(1,3-dihydro-2H-isoindol-2-ylsulfonyl)-1-[(4S)-2,2-dimethyl-1,3-dioxolan-4-yl]ethyl}-N-hydroxyformamide] | 12 nM | 0% | 80% | 74% |  |  | 5%
